Experimental data from publication PMC6143625, “A high throughput screen for next-generation leads targeting malaria parasite transmission” (Nature Communications, 2018).

Tests used:
HepG2 human cells = system: HepG2 human cells; parameters: method as in http://dx.doi.org/10.6019/CHEMBL3507680; details: ref http://dx.doi.org/10.6019/CHEMBL3507680; cited from earlier work
[1] = system: P. falciparum 3D7 asexual blood stages; test: Whole-cell time extended asexual growth assay (pLDH); assay type: cell-based; details: Plasmodium falciparum, 72 h; for IC50: dose response retest, read-out: IC50 (µM) Asex stages; for inhibition at 2 µM: primary screen, read-out: %Inh Asex stages @2uM
Procedure: Asexual activity was assayed via Plasmodium lactate dehydrogenase activity (pLDH), a surrogate of asexual parasite growth. […] 2 µM artesunate and DMSO were used as the positive and negative controls, respectively. […] After plate mixing, NBT reduction was measured by absorbance at 650 nm using Envision (Perkin Elmer).

Compound	%Inh HepG2 @10uM (HepG2 human cells)	IC50 [1]	inhibition at 2 µM [1]
Cc1cccnc1[C@H](C)Nc1nc(-c2cccnc2)nc2c1CNC2 [DDD01248607]	-8.07%	3.44 µM	50%
CC(C)Cc1ncc2c(n1)CN(c1nccc(NC(C)C)n1)C2 [DDD01249567]	2.52%	1.4 µM	92.8%
Cc1cccc2[nH]c(-c3cn(C4CCNCC4)nn3)nc12 [DDD01250141]	-3.11%	3.82 µM	34.6%
CCc1[nH]c2c(CNc3cc(C)nc(NC)n3)cc(C)cc2c1C [DDD01250162]	98.31%	1.2 µM	55.3%
CCCc1nc(N(C)CCN2CCCCCC2)c2cnn(C)c2n1 [DDD01250696]	-11.00%	5.78 µM	32.1%
Cc1cc2nc(-c3cn(C4CCNCC4)nn3)[nH]c2cc1C [DDD01250700]	-2.26%	2.49 µM	60.9%
Cc1cnccc1NCCNC1CCN(CC(C)C)CC1 [DDD01251125]	2.02%	1.35 µM	98.4%
Cc1nc(-c2cc(Cl)cc3c2OC(CN)C3)c[nH]1 (stereo not drawn) [DDD01251343]	11.09%	1.97 µM	52.6%
CCc1[nH]c2c(CNc3nc(C)cc(NC)n3)cc(C)cc2c1C [DDD01251782]	99.91%	1.78 µM	97.5%
O=C(NCc1cnn2cccnc12)c1cccc(CC2CCNCC2)c1 [DDD01252275]	5.06%	2.46 µM	33%
Cc1cccnc1C(Nc1nccc(C2CCCC2)n1)C1CC1 (stereo not drawn) [DDD01252324]	0.36%	1.71 µM	73.4%
COc1cccc(OC)c1CN1CC(=O)N(c2ccc(C)cc2)CC1C (stereo not drawn) [DDD01252418]	1.44%	5.59 µM	31.8%
CCOc1cccc(CN2CCCC(Nc3ccc(F)cc3)C2)c1O (stereo not drawn) [DDD01252745]	-6.06%	3.07 µM	42.7%
CNc1cc(C)nc(N2Cc3cnn(Cc4ccc(F)cc4)c3C2)n1 [DDD01252874]	11.36%	2.61 µM	45.8%
Cc1nc(NCCSc2ccccn2)c2c(C)noc2n1 [DDD01253053]	-4.96%	4.44 µM	38.4%
NCC1Cc2cc(-c3nccc(N4CCC(O)CC4)n3)cc(F)c2O1 (stereo not drawn) [DDD01254054]	6.33%	4.81 µM	76.3%
CCCc1cncnc1N1CCC(NCc2cc3ccccc3[nH]2)CC1 [DDD01254125]	8.09%	2.43 µM	35.4%
CNc1nc(C)cc(NC2CCCN(C3Cc4ccccc4C3)C2)n1 (stereo not drawn) [DDD01254555]	14.91%	1.97 µM	91.2%
Cc1noc(C)c1CN(C)c1nc(C2CCCC2)nc2c1cnn2C [DDD01254835]	9.62%	2.56 µM	57.1%
CNC(=O)c1cn2cc(-c3ccccc3Cl)n(CC=C(C)C)c(=O)c2n1 [DDD01255495]	35.09%	6.64 µM	43.8%
Cc1cnc(C)c(N2CCN(CCCc3ccncc3)CC2)n1 [DDD01256723]	6.37%	3.29 µM	48%
NCC(=O)N1CCCC1c1ccc(C(=O)NCc2ccoc2)s1 (stereo not drawn) [DDD01257217]	-2.34%	2.73 µM	34.1%
CSCCNC(=O)c1ccc(OC2CCN(CC(C)(C)C)CC2)c(Cl)c1 [DDD01257510]	-7.80%	5.38 µM	38.4%
Cc1nc[nH]c1CN(C)CC1CCCN(CCc2ccc(Cl)cc2)C1 (stereo not drawn) [DDD01257555]	20.49%	2.44 µM	66.5%
COc1cccc(CN2CCCC(Nc3cccc(F)c3)C2)c1O (stereo not drawn) [DDD01257695]	-4.92%	2.56 µM	55.2%
CN(Cc1cccc(O)c1)CC1CCCN(CCc2ccc(Cl)cc2)C1 (stereo not drawn) [DDD01257948]	10.17%	1.79 µM	92.9%
CCC1CN(C(=O)c2ccc(Cl)cc2O)CCN1C(C)C (stereo not drawn) [DDD01258121]	-6.93%	2.83 µM	48.6%
CCc1c(C)nc2cc(C3CCN(Cc4ccccc4F)C3)nn2c1O (stereo not drawn) [DDD01270117]	-2.56%	6.27 µM	43.5%
Cc1cc(C)n(C2CN(CC(O)c3cc(F)ccc3F)C2)n1 (stereo not drawn) [DDD01298957]	6.16%	1.27 µM	74.5%
